Source: article PMC10449418, “Adapting antibacterial display to identify serum-active macrocyclic peptide antibiotics” (PNAS Nexus, 2023)
No end group written: not given here.

What was measured:
E. coli 25922 [1] = experiment: MBC in 100% human serum (HS); type: cell-based, Escherichia coli
Description: Minimum inhibitory concentration (MIC) and minimum bactericidal concentration (MBC) assays are standard methods used to first examine antimicrobial potential. These assays are often performed against lab strains of bacteria grown in Mueller–Hinton (MH) media which is not representative of conditions found in the human body during infection. […] W3110 is a K12-derived strain and cannot grow in HS and lacks O-antigen on its cell surface in contrast to 25922. MBCs were used instead of MICs because HS was opaque, making bacterial growth difficult to observe by sight. We chose three cationic AMPs previously discovered using SLAY and four natural cationic AMPs, each with α-helical or β-hairpin secondary structure ([18–24]) (Table S1).

E. coli 25922 [2] = experiment: NPN outer membrane disruption assay; type: cell-based, Escherichia coli; details: 30 min of treatment, PBS, various concentrations, n = 3
Description: (§1) First, we performed two fluorescent membrane disruption assays using 1-N-phenylnaphthylamine (NPN) and propidium iodide (PI). Normally the outer membrane excludes hydrophobic molecules such as NPN, but when damaged, NPN can bind hydrophobic fatty acids within the membrane and fluoresce. PI fluoresces upon DNA binding but can only gain access to the cytoplasm if both the outer and inner membranes have been permeabilized. Antibiotics tested retained antimicrobial activity under the assay conditions used (Fig. S3A).
A culture of E. coli 25922 was grown overnight in liquid media at 37°C. The following day, it was back diluted 1:25 in LB media and grown at 37°C until an OD600 of 0.5. The culture was then pelleted at 1,000 g, washed once with PBS, and resuspended to a final concentration of OD600 0.5. […] Each sample was loaded in triplicate into a 96-well optical-bottom plate and serially diluted two-fold with final volumes of 50 µl in each well. Fifty microliters of the 40 µM NPN was then added to each well, followed by 100 µl of the bacterial cell suspension. After 30 min, the plate was transferred to a BioTek Synergy LX multimode reader for fluorescent measurements. Triplicate samples were normalized to nontreated wells and presented as a mean ± 1 SD (n = 3).

E. coli 25922 [3] = experiment: PI uptake (outer and inner membrane permeabilization) assay; type: cell-based, Escherichia coli; details: 30 min of treatment, PBS + 50 mM glucose, 37°C, n = 3
Description: as §1
PI uptake was measured for E. coli 25922 as previously described ([20]). Briefly, single colonies from overnight growth on LB were inoculated into MH broth and grown to mid-log phase. Cells were then washed twice with PBS + 50 mM glucose and resuspended to an OD = 0.1 in PBS + 50 mM glucose. PI was added at a concentration of 10 µg/ml, and 50 µl of the PI cell mixture was quickly added to a preprepared 96-well plate (NUNC black-walled clear bottom plate) that contained 50 µl of various peptide concentrations. The plate was then allowed to incubate for 30 min in the dark at 37°C and was then read using the Biotek Synergy LX plate reader with the fluorescence red filter cube. Triplicate samples were normalized to nontreated wells and presented as a mean ± 1 SD (n = 3).

G. mellonella larvae = experiment: LD50 in G. mellonella larvae; type: in vivo, Galleria mellonella; details: single injection of a 100-mg/kg dose, death after 4 days, n = 10
Experimental: Live G. mellonella larvae were purchased from DBDPet. Larvae appearing fully healthy (no apparent melanization) and weighing between 200 and 300 mg were used for survival assays. Larvae were first injected into their second left proleg with 10 µl of PBS or PBS containing 1 × 10^6E. coli 25922 cells grown to an OD of 0.5 and washed in PBS. Injections were performed using a Hamilton 250-µl pipet equipped with an autodispenser and 30-gauge BD needle. […] Larvae groups were then incubated at 37°C for 72 h and observed for death. Larvae were determined to be dead if they were unable to right themselves after being placed on their back. Significance was determined by comparing Kaplan–Meier survival curves to untreated using a log-rank test (n ≥ 13 per sample).

E. coli 25922 [4] = experiment: MIC (growth inhibition) in MH media; type: cell-based, Escherichia coli; details: 37°C, 18–24 h, examined by eye, median of three replicates

Molecule | serum activity (MBC in HS), in words (E. coli 25922 [1]) | NPN fluorescence (outer membrane permeation) (E. coli 25922 [2]) | PI uptake (outer and inner membrane permeabilization) (E. coli 25922 [3]) | LD50 for G. mellonella larvae (G. mellonella larvae) | Antibiotic activity against E. coli 25922: MIC (E. coli 25922 [4]) [µg/mL]
CC(C)C[C@H](NC(=O)[C@H](CCCNC(=N)N)NC(=O)CNC(=O)CNC(=O)[C@@H](N)CCCNC(=N)N)C(=O)N[C@H]1CSSC[C@@H](C(=O)N[C@H](C(=O)NCC(=O)N[C@@H](CCCNC(=N)N)C(N)=O)C(C)C)NC(=O)[C@H](C(C)C)NC(=O)[C@@H]2CSSC[C@H](NC(=O)[C@H](Cc3ccc(O)cc3)NC1=O)C(=O)N[C@@H](CCCNC(=N)N)C(=O)N[C@@H](CCCNC(=N)N)C(=O)N[C@@H](CCCNC(=N)N)C(=O)N[C@@H](Cc1ccccc1)C(=O)N2 [Protegrin-1] | retained the most activity in HS relative to MH | strong fluorescence of both NPN and PI | strong fluorescence of both NPN and PI | over 100 mg/kg | 
KWCFRVCYRGICYRRCR-NH2 (disulfide (positions not given here)) [Tachyplesin-1, natural β-AMP] | retained the most activity in HS relative to MH |  |  |  | 
Kanamycin |  | no NPN fluorescence or PI uptake | no NPN fluorescence or PI uptake |  | 4
